The source of these data is ChEMBL document CHEMBL1201862, “PubChem BioAssay data set” (2004).

The target in this assay is T1, Exodeoxyribonuclease V (Escherichia coli (strain K12), UniProt P04993+P07648+P08394).
T1 sequence (P04993 whole entry): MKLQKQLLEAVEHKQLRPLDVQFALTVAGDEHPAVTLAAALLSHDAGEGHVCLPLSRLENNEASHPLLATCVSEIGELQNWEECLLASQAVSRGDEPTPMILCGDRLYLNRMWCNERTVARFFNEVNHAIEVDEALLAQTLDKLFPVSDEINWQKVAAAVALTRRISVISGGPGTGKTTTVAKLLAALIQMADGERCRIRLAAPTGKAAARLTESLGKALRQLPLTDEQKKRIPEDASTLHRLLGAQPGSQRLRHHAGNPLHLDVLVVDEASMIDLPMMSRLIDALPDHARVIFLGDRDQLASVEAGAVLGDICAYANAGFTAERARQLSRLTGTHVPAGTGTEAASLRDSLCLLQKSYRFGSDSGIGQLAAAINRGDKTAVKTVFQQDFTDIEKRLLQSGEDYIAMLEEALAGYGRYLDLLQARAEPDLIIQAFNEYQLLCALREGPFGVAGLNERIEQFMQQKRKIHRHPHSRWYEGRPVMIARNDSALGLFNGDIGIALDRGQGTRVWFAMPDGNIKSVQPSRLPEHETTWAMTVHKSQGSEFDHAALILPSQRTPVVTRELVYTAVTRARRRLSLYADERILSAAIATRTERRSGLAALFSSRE
T1 sequence (P07648 whole entry): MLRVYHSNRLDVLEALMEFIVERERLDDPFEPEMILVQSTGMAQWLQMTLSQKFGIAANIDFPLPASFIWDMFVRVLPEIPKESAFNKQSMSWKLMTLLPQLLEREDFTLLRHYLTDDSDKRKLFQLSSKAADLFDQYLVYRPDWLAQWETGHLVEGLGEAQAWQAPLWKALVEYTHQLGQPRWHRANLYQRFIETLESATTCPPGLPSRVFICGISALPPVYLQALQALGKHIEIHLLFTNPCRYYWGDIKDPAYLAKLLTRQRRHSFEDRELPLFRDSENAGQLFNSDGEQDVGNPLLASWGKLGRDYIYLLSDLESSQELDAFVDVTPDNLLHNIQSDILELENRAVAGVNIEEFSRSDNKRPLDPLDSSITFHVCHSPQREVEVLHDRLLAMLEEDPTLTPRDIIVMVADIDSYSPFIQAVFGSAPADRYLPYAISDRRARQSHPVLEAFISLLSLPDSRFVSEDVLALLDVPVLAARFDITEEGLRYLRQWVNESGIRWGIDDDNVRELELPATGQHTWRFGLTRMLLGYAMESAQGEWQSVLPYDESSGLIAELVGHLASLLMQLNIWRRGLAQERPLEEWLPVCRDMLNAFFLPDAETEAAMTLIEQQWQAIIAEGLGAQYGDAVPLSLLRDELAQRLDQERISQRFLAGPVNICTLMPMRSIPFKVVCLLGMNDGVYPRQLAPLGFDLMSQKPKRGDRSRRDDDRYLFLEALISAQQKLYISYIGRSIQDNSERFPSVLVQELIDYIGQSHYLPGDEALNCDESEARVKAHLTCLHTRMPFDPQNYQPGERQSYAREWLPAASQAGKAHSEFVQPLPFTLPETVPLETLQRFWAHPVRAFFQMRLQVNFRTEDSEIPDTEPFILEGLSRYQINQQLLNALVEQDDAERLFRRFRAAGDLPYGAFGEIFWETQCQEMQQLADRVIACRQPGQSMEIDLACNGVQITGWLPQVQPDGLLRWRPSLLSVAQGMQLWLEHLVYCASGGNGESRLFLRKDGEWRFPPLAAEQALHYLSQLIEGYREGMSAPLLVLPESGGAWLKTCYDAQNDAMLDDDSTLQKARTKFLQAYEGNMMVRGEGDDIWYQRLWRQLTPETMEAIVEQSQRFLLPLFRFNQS
T1 sequence (P08394 whole entry): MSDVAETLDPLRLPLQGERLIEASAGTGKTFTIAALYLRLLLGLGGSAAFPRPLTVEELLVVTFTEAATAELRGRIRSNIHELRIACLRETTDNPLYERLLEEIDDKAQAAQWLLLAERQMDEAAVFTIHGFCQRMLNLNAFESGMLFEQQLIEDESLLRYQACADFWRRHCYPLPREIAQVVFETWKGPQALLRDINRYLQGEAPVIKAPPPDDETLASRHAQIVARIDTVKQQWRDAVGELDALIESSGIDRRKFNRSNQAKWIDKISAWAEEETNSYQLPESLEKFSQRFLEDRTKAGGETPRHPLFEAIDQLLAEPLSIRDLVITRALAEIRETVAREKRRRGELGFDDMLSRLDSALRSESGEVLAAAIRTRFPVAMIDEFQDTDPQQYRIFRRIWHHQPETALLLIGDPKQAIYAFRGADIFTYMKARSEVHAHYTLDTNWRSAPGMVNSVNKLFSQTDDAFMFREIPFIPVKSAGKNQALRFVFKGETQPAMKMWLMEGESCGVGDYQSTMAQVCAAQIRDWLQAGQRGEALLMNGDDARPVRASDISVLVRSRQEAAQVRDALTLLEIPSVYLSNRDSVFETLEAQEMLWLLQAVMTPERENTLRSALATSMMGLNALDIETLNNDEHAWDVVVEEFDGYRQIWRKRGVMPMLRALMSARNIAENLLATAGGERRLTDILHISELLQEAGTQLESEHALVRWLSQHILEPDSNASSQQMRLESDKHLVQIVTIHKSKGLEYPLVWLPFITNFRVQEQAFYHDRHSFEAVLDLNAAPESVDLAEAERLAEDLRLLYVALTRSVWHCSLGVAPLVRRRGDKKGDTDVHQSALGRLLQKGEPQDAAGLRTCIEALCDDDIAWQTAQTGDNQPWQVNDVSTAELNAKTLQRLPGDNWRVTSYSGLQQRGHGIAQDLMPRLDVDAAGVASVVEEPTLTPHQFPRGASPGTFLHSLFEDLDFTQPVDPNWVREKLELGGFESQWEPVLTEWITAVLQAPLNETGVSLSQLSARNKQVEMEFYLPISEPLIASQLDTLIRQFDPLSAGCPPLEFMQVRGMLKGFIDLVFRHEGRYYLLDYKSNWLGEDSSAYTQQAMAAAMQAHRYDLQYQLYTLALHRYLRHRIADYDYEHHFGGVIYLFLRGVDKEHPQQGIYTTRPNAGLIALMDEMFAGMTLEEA
Description: RecBCD inhibition via phage-restricted bacterial growth – absorbance, V66 E. coli, mutant T4 phage, counter-screen for AddAB inhibitor project, dose response (AID 492957). Format: functional, cell-based, Escherichia coli str. K-12 substr. MG1655. In general terms: A counterscreen serves to expose hits that act by an unwanted route or on another target.

Activity calls are given as the source filed them. No rule for the calls is given here. Some results are limits rather than exact numbers.

Turning to `Cc1ccc(C)c(S(=O)(=O)N2CCN(Cc3ccc(O)c4ncccc34)CC2)c1`, the IC50 was > 119 µM (inactive).

By IC50 is commonly meant the concentration that inhibits the measured activity by half.
